Measurements reported in patent US20250179088A9 (ZYMEWORKS BC INC., priority 2020, published 2025).

Experiments:
PBMCs [1] = assay: PBMC assay, IL-6 release (HTRF); type: cell-based; settings: PBMCs from healthy donors, overnight, IL-6 induction by HTRF, average of quadruplicate
PBMCs [2] = assay: PBMC assay, TNF-α release (HTRF); type: cell-based; settings: PBMCs from healthy donors, overnight, TNF-α induction by HTRF
Experimental: Whole peripheral blood was obtained from healthy donors. PBMCs were isolated from peripheral blood by density gradient centrifugation. […] Technologies, Vancouver, Canada) and centrifuged at 1200×G for 10 minutes in SepMate™ tubes (#15450, […] Technologies). The plasma layer containing PBMCs was poured into a new tube and washed twice. Isolated PBMCs were either used fresh or thawed from previously frozen. 1×10^5 PBMCs were cultured with titrating concentrations of compounds of Formula I overnight followed by assaying for cytokines by homogeneous time resolved fluorescence (HTRF). Compounds were dissolved in DMSO.

TLR7 = biological target: T1, TLR7 (Homo sapiens, UniProt Q9NYK1); assay: Reporter gene assay, HEK-Blue TLR7 reporter cells (SEAP)
T1 sequence (Q9NYK1 27-1049): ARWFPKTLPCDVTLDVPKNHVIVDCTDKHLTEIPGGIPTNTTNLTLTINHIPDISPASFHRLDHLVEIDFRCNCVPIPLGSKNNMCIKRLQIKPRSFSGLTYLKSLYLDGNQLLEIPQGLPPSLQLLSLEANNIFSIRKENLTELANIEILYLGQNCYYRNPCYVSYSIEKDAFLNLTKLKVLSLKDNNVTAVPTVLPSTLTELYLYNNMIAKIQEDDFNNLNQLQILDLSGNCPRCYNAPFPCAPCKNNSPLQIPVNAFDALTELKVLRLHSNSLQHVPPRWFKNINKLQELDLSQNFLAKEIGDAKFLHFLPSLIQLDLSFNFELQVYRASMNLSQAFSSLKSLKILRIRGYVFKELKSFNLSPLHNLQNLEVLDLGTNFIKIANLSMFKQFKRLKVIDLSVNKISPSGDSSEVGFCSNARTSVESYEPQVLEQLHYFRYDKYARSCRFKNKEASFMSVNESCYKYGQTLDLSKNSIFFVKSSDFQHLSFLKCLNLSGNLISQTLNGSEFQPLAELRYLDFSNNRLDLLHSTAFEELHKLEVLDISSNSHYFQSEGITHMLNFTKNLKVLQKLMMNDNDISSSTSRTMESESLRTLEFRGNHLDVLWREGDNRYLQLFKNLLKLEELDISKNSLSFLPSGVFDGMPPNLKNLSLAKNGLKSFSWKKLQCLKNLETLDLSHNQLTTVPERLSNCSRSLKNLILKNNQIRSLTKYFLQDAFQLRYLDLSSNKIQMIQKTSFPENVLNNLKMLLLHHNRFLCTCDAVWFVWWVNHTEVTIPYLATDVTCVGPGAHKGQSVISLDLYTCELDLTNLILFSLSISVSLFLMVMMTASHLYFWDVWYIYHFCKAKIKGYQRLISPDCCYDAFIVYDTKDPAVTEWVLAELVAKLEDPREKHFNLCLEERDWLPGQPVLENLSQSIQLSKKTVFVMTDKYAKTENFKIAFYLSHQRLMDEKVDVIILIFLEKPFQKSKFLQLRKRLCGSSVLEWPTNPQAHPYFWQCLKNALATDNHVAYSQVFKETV
Experimental: (§1) 3×10^4 HEK-Blue™ TLR7 or 3×10^4 TLR8 reporter cells (InvivoGen, San Diego, CA) were treated with titrated (4-fold) amounts of test compound. […] Cells were incubated overnight at 37° C. and 5% CO2, then absorbance (620 and 655 nm) was read on a Synergy™ H1 microplate reader.

TLR8 = biological target: T2, TLR8 (Homo sapiens, UniProt Q9NR97); assay: Reporter gene assay, HEK-Blue TLR8 reporter cells (SEAP)
T2 sequence (Q9NR97 27-1041): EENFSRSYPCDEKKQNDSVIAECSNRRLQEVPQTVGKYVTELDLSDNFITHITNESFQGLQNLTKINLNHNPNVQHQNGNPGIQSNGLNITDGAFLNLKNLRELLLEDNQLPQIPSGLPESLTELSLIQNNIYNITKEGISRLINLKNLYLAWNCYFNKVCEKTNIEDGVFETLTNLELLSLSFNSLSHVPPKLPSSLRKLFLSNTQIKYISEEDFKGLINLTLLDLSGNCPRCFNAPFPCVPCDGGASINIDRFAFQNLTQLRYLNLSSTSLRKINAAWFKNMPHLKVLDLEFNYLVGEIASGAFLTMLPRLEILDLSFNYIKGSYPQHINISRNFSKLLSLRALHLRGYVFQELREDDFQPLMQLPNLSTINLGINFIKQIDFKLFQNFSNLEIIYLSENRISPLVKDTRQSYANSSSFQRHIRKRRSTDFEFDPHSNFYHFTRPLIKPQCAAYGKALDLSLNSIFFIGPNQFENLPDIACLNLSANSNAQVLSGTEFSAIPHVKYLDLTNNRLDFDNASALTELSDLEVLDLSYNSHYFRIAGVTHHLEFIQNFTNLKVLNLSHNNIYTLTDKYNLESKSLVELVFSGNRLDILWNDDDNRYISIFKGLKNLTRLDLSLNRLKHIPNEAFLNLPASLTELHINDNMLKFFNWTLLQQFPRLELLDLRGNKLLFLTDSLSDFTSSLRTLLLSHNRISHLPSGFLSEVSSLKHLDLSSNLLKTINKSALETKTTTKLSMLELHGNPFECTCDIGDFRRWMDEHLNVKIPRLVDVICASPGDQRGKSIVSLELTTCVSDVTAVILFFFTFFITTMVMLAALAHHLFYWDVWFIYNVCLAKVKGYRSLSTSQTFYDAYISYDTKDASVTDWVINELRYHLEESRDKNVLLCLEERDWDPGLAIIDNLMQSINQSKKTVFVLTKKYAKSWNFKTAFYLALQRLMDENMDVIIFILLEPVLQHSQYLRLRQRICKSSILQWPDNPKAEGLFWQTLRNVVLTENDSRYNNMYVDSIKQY
Experimental: as §1

EC50 (TLR7): 310 nM | EC50 (TLR8): 73 nM
SMILES: CCCCc1nc2c(N)nc3ccsc3c2n1Cc1nc(CNCCCCCO)cs1 [Compound 236, 5-(((2-((4-amino-2-butyl-1H-imidazo[4,5-d]thieno[3,2-b]pyridin-1-yl)methyl)thiazol-4-yl)methyl)amino)pentan-1-ol]
EC50 (PBMCs [1]): 310 nM | EC50 (PBMCs [2]): > 1000 nM
